Experimental data taken from patent US6013795A, “Alpha-branched fluoroalkylcarbonyl fluorides and their derivatives” (3M Innovative Properties Company, priority 1996, dated 2000).
“Also recorded” adds a separate entry of the source.

Tests used:
[1] = hydrolytic stability of esters stirred with concentrated aqueous ammonium hydroxide; format: physicochemical; details: 2 days or comparable conditions
Excerpt: The acrylate and methacrylate esters from Examples D1-D11 were fully recoverable with essentially no degradation after being stirred with concentrated aqueous ammonium hydroxide for a period of 2 days.

rats = experiment: acute LD50, one-time feeding study of rats; format: in vivo, rat; details: for toxicity rating: acute
Procedure: Acute LD50 measurements for a one-time feeding study of rats were determined over a 21 day period for both the α-branched perfluorocarboxylate salt, C7 F15 CF(CF3)COO^- NH4^+, and its straight chain isomer, CF3 (CF2)8 COO^- NH4^+.

[2] = Chem. Res. Toxicol. 1996, 9, 689-95; cited from earlier work
[3] = surface tension of aqueous surfactant solutions and critical micelle concentration (K-12 Processor Tensiometer); format: physicochemical; details: carboxylate salts, deionized water; Table 5
Excerpt: Critical Micelle Concentration (CMC): The critical micelle concentration is defined as the concentration at which further surface tension is no longer lowered with increasing levels of surfactant. […] Surface tension is then plotted vs. log concentration and the data points are connected. The resulting curve has a nearly horizontal flat portion at concentrations above the CMC and has a negative steep slope at concentrations below the CMC. The CMC is defined as the lowest surfactant concentration in the horizontal flat portion of the curve.
(§1) Then the critical micelle concentration (CMC) was determined for each surfactant.
as §1

rat = experiment: exhaust gas monitoring of dosed rat in uptake desiccator chamber; format: in vivo; details: 500 mg/kg
Procedure: Additional biological testing of C7 F15 CF(CF3)COO^- NH4^+ in rats was conducted using the following test apparatus. An uptake desiccator jar chamber was designed with top and bottom portions, the top portion equipped with an inlet port, an outlet port, oxygen monitor and pressure gage. An oxygen gas tank supplied oxygen into the inlet port, and the oxygen level in the chamber was maintained at a normal ambient level as measured by the oxygen monitor and pressure gage. The outlet port was connected in series with a carbon dioxide scrubber and particulate filter, which in turn was connected to a loop containing a stainless steel bellows pump operating at about 2 L/min. Most of the gas in the loop was recycled into the inlet port, but about 100 mL/min was directed through a secondary loop to a gas chromatograph equipped with a 0.5 mL gas sampling loop.
A rat dosed at 500 mg/kg was placed in the bottom portion of the chamber, the top portion was attached, and the assembled chamber was placed in an ice-filled pan to allow for the condensation of water. The oxygen flow was started, and the exhaust gases were monitored for the presence of CF3 CF=CF(C6 F13) and C7 F15 CFHCF3, aqueous degradation products of C7 F15 CF(CF3)COOH, using known standards of this olefin and hydride in the gas chromatograph. […] After 24 minutes, one slight chromatographic peak was noted, corresponding to the monohydride. After 92 minutes, the peak became noticeably larger and a second peak formed, corresponding to the olefin.

[4] = emulsion polymerization of vinylidene fluoride and hexafluoropropylene with surfactant as emulsifier
Excerpt: The following procedure was used to evaluate C7 F15 CF(CF3)COO^- NH4^+ (from Ex. M1) as an emulsifier to copolymerize hexafluoropropylene (HFP) and vinylidene fluoride.
A 1 gallon, vertically agitated stainless steel reactor with pressure and temperature controls was evacuated and twice purged with nitrogen. Using an isolated vacuum, a solution comprised of 2 g of ammonium persulfate (initiator) and 6 g of dipotassium phosphate dissolved in 2800 g of deionized water was introduced into the reactor. The remaining vacuum on the reactor was vented with nitrogen, and the solution was degassed twice under agitation using alternate vacuum and nitrogen purges. […] The reactor was vented with nitrogen, the solution was agitated very briefly, and the reactor was evacuated of nitrogen and isolated. Then the reactor was vented with hexafluoropropylene monomer to a pressure of approximately 10 psig (1280 torr total pressure), and the temperature of the batch was raised to 72° C. with high agitation. Maintaining the temperature at 72° C., a monomer mixture of 60% (wt) of vinylidene fluoride and 40% (wt) hexafluoropropylene was fed from a tared gas cylinder into the head space of the reactor to maintain a reactor pressure of 130 psig (7480 total pressure). After feeding in about 1 kg of monomer blend (approximately 3.75 hours duration), the introduction of monomer was ceased, the reaction was allowed to cool to room temperature, and any residual unreacted monomer was vented.
The resulting latex polymer was drained from the reactor, and percent solids of the latex was determined to be 25% by weight as measured by drying 10 g of latex in a forced air oven for 16 hours at 105° C.
The reactor body was separated from the reactor head, and a visual inspection of the reactor was made to determine the amount of coagulated polymer in the reactor (the amount should be minimal in a good polymerization reaction). A qualitative rating was assessed, ranging from "none" to "little" to "some."
The latex stability was determined by half filling a 16 oz (450 mL) jar with latex and shaking several hours in the horizontal position, quantitatively rating the latex after shaking using a 3-point scale ranging from 0=very stable to 3=unstable.
Particle size in the latex was determined using 90° scattering on a Coulter sub-micron particle size analyzer.
Degree of foaming was rated using the following qualitative scale: 0=not foamy, 1=slightly foamy, 2=moderately foamy, and 3=very foamy.
In Example P2, the same experiment was run as in Example P1, except that the concentration of C7 F15 CF(CF3)COO^- NH4^+emulsifier was raised to 3500 ppm, the reaction time decreased from 3.75 to 3.5 hours, and the reaction temperature increased from 72° C. to 78° C.
In Comparative Examples P3-P6, the same experiment was run as in Example P1, except that C8 F17 SO2 N(C2 H5)CH2 COO^- K^+ (Fluorad™ FC-128 Fluorochemical Surfactant, available from 3M Company, St. Paul, Minn.), C7 F15 COO^- H4 N^+ (Fluorad™ FC-143 Fluorochemical Surfactant), and Surflon™ S111S Fluorochemical Surfactant (believed to be nominally telomer-based n-C9 F19 COO^- H4 N^+, commercially available from Asahi Glass Corp., Japan) were substituted for C7 F15 CF(CF3)COO^- H4 N^+ emulsifier.
In Comparative Example P7, the same experiment was run as in Example P1, except that no emulsifier was used.

[5] = thermal degradation of neat perfluorocarboxylate salts by thermogravimetric analysis; format: physicochemical; details: TGA 10° C./min, nitrogen
Excerpt: Thermal degradation measurements were made on a series of neat perfluorocarboxylate salts, including several α-branched open chain structures (Examples N2-N9), a primarily linear open chain structure (Example N10--Fluorad™ FC-143 Fluorochemical Surfactant, commercially available from 3M Company, St. Paul, Minn.), and a closed chain (i.e., cyclic) structure (Example N11- made by the electrochemical fluorination of benzoic acid and hydrolysis in the presence of KOH, as described in U.S. Pat. No. 2,567,011 (Diesslin et al.)).
The perfluorocarboxylate salts were tested using a Perkin-Elmer TGA 7 thermogravimetric analysis apparatus and a salt sample size of approximately 5 mg, a heating rate of 10° C./min, and a nitrogen gas flow rate of 40-45 mL/min. Using the TGA 7 software, the following temperatures were recorded: (1) the onset temperature of decomposition, (2) the temperature at which 50% of the sample weight was lost, and (3) the temperature at which 90% of the sample weight was lost.

[6] = degradation of aqueous salt solution stored at room temperature; format: physicochemical; details: same 1 year period
Procedure: The α-branched open chain ammonium salt compounds from Examples N3-N6 were dissolved in deionized water at a concentration of 5% by weight (0.5 g ammonium salt in 10 mL water) and were stored at room temperature.

Question: Which hydrolytic stability [1] does the source give for `C=CC(=O)OCCOC(=O)C(F)(F)C(F)(F)C(F)(F)C(F)(F)C(F)(F)C(F)(F)C(F)(F)F` [C7 F15 COOCH2 CH2 OCOCH=CH2] here?
Answer: The hydrolytic stability was “readily hydrolyzed”.

Question: What does the source list for `O=C(O)C(F)(F)C(F)(F)C(F)(F)C(F)(F)C(F)(F)C(F)(F)C(F)(F)C(F)(F)C(F)(F)F` [C9 F19 COO^- NH4^+, reference compound]?
Answer: toxicity relative to the α-branched isomer (rats; LD50 based): ca. 10 times; toxicity rating (rats): moderately toxic; wasting syndrome (rats; one-time feeding): Wasting syndrome was observed; toxicity [2]: moderately toxic

Question: Which CMC [3] does the source give for `O=C(O)C(F)(C(F)(F)F)C(F)(F)C(F)(F)C(F)(F)C(F)(F)C(F)(F)C(F)(F)C(F)(F)F` (stereo not shown) [Example M14, C7 F15 CF(CF3)COO^- H4 N^+] here?
Answer: Its CMC is 2500 ppm.

Question: And the “Surf. Tens. at the CMC” value [3]?
Answer: Its value is 16.5 dynes/cm.

Question: What about the toxicity rating (rats; listed as C7 F15 CF(CF3)COO^- NH4^+) of the same compound?
Answer: The toxicity rating was “relatively low toxicity; also recorded: only slightly toxic”.

Question: And the “time after which rats began regaining weight” value (rats; one-time feeding)?
Answer: The value was 3 days.

Question: And the “time of deaths from toxic doses” value (rats; one-time feeding)?
Answer: Its value is 2 to 3 days.

Question: And the wasting syndrome (rats; one-time feeding)?
Answer: The wasting syndrome was “No wasting syndrome was noted”.

Question: And the “post-exposure observation of toxicity” value (rat)?
Answer: Its value is “no evidence of toxicity (death) or evidence of wasting syndrome”.

Question: What about the “time to second peak (olefin) in exhaust gas; monohydride peak noticeably larger” value (rat) of the same compound?
Answer: Its value is 92 min.

Question: What about the “time to slight peak of monohydride in exhaust gas” value (rat) of the same compound?
Answer: Its value is 24 min.

Question: And the “olefin and monohydride peaks in exhaust gas” value (rat; after 217 minutes)?
Answer: Its value is “both peaks became significantly larger”.

Question: And the “olefin or hydride in exhaust gas” value (rat; initially)?
Answer: The value was “no olefin or hydride were detected”.

Question: What about the “Latex Stability” value ([4]; 350 ppm emulsifier) of the same compound?
Answer: The value was 2.

Question: What about the “Latex Stability” value ([4]; 3500 ppm emulsifier) of the same compound?
Answer: Its value is 0.

Question: For `O=C(O)C(F)(C(F)(F)F)C(F)(F)C(F)(F)C(F)(F)C(F)(F)C(F)(F)F` (stereo not shown) [Example M28, C5 F11 CF(CF3)COO^- Na^+], which “Temperature for 50% loss” value ([5]; listed as N8) is on record?
Answer: Its value is 250 °C.

Question: Which results are given for `O=C(O)C(F)(F)C(F)(F)C(F)(F)C(F)(F)C(F)(F)C(F)(F)C(F)(F)F` [FC-143, C7 F15 COO^- H4 N^+]?
Answer: CMC [3]: 8000 ppm; Surf. Tens. at the CMC [3]: 21.5 dynes/cm; degradation over 1 year (would show) [6]: no signs of degradation; Latex Stability ([4]; 350 ppm emulsifier): 2

Question: Which results are given for `CCN(CC(=O)O)S(=O)(=O)C(F)(F)C(F)(F)C(F)(F)C(F)(F)C(F)(F)C(F)(F)C(F)(F)C(F)(F)F` [Fluorad ™ FC-128, C8 F17 SO2 N(C2 H5)CH2 COO^- K^+]?
Answer: Latex Stability ([4]; 100 ppm emulsifier): 2; Latex Stability ([4]; 350 ppm emulsifier): 0

Question: What does the source list for `O=C(O)C1(F)C(F)(F)C(F)(F)C(F)(F)C(F)(F)C1(F)F` [U.S. Pat. No. 2,567,011]?
Answer: Onset temperature of decomposition [5]: 100 °C; Temperature for 50% loss [5]: 110 °C; Temperature for 90% loss [5]: 120 °C
